Experimental data taken from patent publication US5132302A, “Use of aromatic aminoalkoxy derivatives for the treatment of troubles of the cerebrovascular system” (priority 1989, dated 1992).

Test system: isolated balisar artery of a rabbit
Experiment: test of contractions of the isolated balisar artery of a rabbit in a hypopotassic medium (contraction induced by KC1)
Type: cell-based
Settings: Oryctolagus cuniculus, read-out: IC50 (concentrations which reduce by 50% the amplitude of the contraction induced by KC1)
Description: The protocol of this test is the following. The rabbit is anaesthetized with pentobarbital at a dose of 30 mg/kg then sacrificed by exsanguination and decapitated at the level of the third cervical vertebra. The balisar artery is removed (1.5 cm) between the vertebral arteries and the polygon of Willis. The balisar artery is then cut in a spiral at an angle of 45° . It is fixed by means of a curved needle between an L shaped glass carrier and a displacement sensor (Grass, type FT03). A mechanical tension of 500 mg is applied to the vessel before letting it reach its balance state.
For a period of an hour, the vessel is rinsed every twenty minutes until a stable level is obtained.
The tonic contraction consecutive to depolarization caused by KC1 is dependent on the calcic movements for it is abolished by the suppression of calcium in the survival medium.

SMILES | IC50
COc1cc(F)c(OC)c(OCCN2CCCCC2)c1C(O)CCc1ccc(O)cc1 (stereo not shown) [compound 72] | 3 nM

Same assay, conditions: Oryctolagus cuniculus; isolated rabbit balisar artery; KC1 at 35 mmoles; read-out: IC50 (concentrations which reduce by 50% the amplitude of the contraction induced by KC1)

IC50 | SMILES
1.4 nM | COc1cc([N+](=O)[O-])c(OC)c(C(O)CCc2ccc(O)cc2)c1OCCN1CCCCC1 (stereo not shown) [compound 74]
2.3 nM | COc1cc(Cl)c(OC)c(OCCN2CCCCC2)c1C(O)CCc1ccc(O)cc1 (stereo not shown) [compound 69]
400 nM | COc1ccc(OC)c(C(O)CCc2ccccc2)c1OCCN1CCCCC1 (stereo not shown) [compound 3]

Continued, compound first:

SMILES | IC50
CCN(CC)CCOc1c(OC)c(Cl)cc(OC)c1C(O)CCc1ccc(O)cc1 (stereo not shown) [compound 70] | 7.2 nM
COc1ccc(OC)c(C(O)CCc2ccc(O)cc2)c1OCCN1CCCCC1 (stereo not shown) [compound 10] | 26 nM
COc1cc(Cl)c(OC)c(OCCN(C(C)C)C(C)C)c1C(O)CCc1ccc(O)cc1 (stereo not shown) [compound 71] | 9.8 nM
